Like-named read-outs stand apart in the source and are kept apart here.
Legend:
DGAT-1 = target: T1, DGAT-1 (Homo sapiens, UniProt O75907); assay: DGAT-1 in vitro assay, membrane fractions of DGAT-1-transfected 293T cells, NBD-palmitoyl CoA, TLC; format: biochemical
T1 construct: expressed in transfected cells; host or cells: 293T cells (membrane fraction)
T1 sequence (O75907 1-488): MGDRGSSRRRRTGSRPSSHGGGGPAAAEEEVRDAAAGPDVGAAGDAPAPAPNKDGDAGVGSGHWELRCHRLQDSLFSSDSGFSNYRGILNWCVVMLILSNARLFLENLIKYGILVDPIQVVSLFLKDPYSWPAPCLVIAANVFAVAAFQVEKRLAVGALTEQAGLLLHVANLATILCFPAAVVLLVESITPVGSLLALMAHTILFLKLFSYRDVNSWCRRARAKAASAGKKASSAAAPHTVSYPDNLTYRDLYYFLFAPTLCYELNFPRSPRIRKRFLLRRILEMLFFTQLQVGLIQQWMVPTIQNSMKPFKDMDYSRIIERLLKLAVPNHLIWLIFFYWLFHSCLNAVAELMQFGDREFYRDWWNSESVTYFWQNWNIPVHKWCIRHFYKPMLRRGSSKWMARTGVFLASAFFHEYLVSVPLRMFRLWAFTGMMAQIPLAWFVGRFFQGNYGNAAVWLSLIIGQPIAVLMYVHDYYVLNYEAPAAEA
Procedure: pcDNA3.1-DGAT1 plasmid was transfected into 293T cells by using a lipofectamine 2000 transfection reagent (Invitrogen) as described by the manufacturer. At 24 h after transfection, transfected cells were harvested and cells were resuspended with 500 μL of 50 mM Tris-HCL/250 mM sucrose. Resuspended cells were disrupted by 15 passages through a 27-gauge needle and centrifugation at 600× g for 5 min. The supernatant was ultracentrifuged at […] for 30 min and the supernatant was discarded. The pellets were resuspended in a total of 500 μL of 50 mM ice-cold Tris-HCl/250 mM sucrose. Then, a master mix containing 20 μL of 1 M-Tris-HCl, 4 μL of 1 M MgCl2, 10 μL of 4 mM DOG in acetone, 10 μL of 12 mg/mL BSA and 10 μL of 500 μM NBD-palmitoyl CoA in 20 mM Tris was prepared and incubated at 37 °C for 2 min. Also, 50 μg total membrane proteins were incubated with 10j and A922500 at 37 °C for 1 h. Extracted proteins were added into master mix and incubated at 37 °C for 10 min. The reaction was terminated by adding 4 mL CHCl3/methanol (2:1, v/v). Samples were mixed by vortexing and 800 μL of water was added and remixed. Samples were allowed to sit at room temperature for 1 h. […] Plate was allowed to air dry for 1 h before quantification of reaction products. The synthesized TG was determined by the ChemiDoc imaging system (Bio-Rad, Hércules, CA, USA).

Huh7.5-J6/JFH1 cells = assay: FACS analysis of LD-positive (BODIPY) J6/JFH1 cells; format: cell-based; settings: 8 μM, 72 h, with BODIPY; DMSO 78.2%
Procedure: Huh7.5-J6/JFH1 cells were plated onto a 10 cc plate (Corning) and supplemented with either DMSO or 8 μM of 10j for 72 h. Then, Huh7.5-J6/JFH1 cells were fixed by using 4% paraformaldehyde for 10 min and permeabilized using 0.1% saponin in PBS for 20 min. Huh7.5-J6/JFH1 cells were stained with 0.001% BODIPY 493/503 D3922 (Invitrogen) in saponin for 1 h at 4 °C. The FACSAriaIII (BD Biosciences, Franklin Lakes, NJ, USA) was used for the flow cytometric analysis as previously described.

[1] = test system: HCV genotype 1b (Huh7.5-Bart79I); assay: HCV genome replication in sub-genomic replicon Huh7.5-Bart79I cells by real-time RT-PCR
Procedure: Quantitative real-time RT-PCR analysis to measure levels of HCV RNA and GAPDH was conducted as previously described. The cDNA synthesis and reverse transcription of miR-122 were performed by using Taqman quantitative RT-PCR (qRT-PCR) analysis. Taqmanq RT-PCR components including TaqMan miR122 probe, endogenous control U6 probe, TaqMan® MicroRNA reverse transcription Kit and TaqMan® universal master mix II were purchased from Thermo Fisher Scientific (Waltham, MA, USA)

[2] = test system: HCV NS3 (Huh7.5-J6/JFH1, genotype 2a); assay: western blot of HCV NS3 protein in Huh7.5-J6/JFH1 cells
Procedure: Due to the tight coupling of viral genome replication to its protein expression, inhibition of viral RNA genome replication leads to a subsequent reduction of viral protein expression.
(A) Dose-dependent western blot analysis of Huh7.5-J6/JFH1 cells treated with increasing concentrations of 10j for 72 h by measuring protein expression levels of HCV NS3 relative to the β-actin. Daclatasvir, an NS5A inhibitor was used as a positive control. (B) Time-dependent western blot analysis of J6/JFH1 RNA-transfected Huh7.5 cells treated with 8 μM of 10j for increasing periods of time analyzed by measuring protein expression levels of HCV NS3 relative to the β-actin. (C,D) Same experiments were performed as in (A,B) to study effects of 10j on the expression levels of the NS5A protein of Huh7.5-Bart79I cells in a dose- as well as time-dependent manners.
Western blot analysis of Huh7.5-J6/JFH1 or Bart79I cells treated with 10j was conducted as previously described. Relative amounts of HNF4α proteins were quantified by using an HNF4α mouse monoclonal antibody (M04), clone 4E2 (Abnova) with the dilution of 1:1000.

HCV IRES = assay: HCV IRES-dependent translation, dual luciferase reporter in Huh7.5 cells; format: cell-based, hepatitis C virus; settings: up to 10 μM
Procedure: A dual luciferase reporter plasmid, which expresses firefly and renila luciferases through cap and HCV IRES-dependent translation, was transfected into Huh7.5 cells in the presence of 10j. Dual luciferase assay was conducted as previously described.

[3] = MTT-based cell viability assay (EZ-CYTOX); settings: human
Procedure: To order to study impacts of DGAT inhibitors on HCV genome replication independently of the particle production, we decided to examine effects of these twelve DGAT inhibitors on the levels of viral RNA genome and cell viability in parallel. […] Then, we treated them with an increasing concentration of each DGAT inhibitor. Then, luciferase and MTT-based cell viability assays were performed to determine EC50 and CC50 (cytotoxic concentration required to kill 50% of treated cells) values, respectively.
Cell viability was measured with EZ-CYTOX (10% tetrazolium salt; Dogen, Gyeonggi-do, Korea) as described previously. Anti-HCV replication analysis using a luciferase assay was conducted as previously described.

O=C(NCc1ccco1)c1ccc2[nH]c(COc3ccc(C45CC6CC(CC(C6)C4)C5)cc3)nc2c1 [10j, 2-{[4-(adamant-1yl)phenoxy]methyl)-N-(furan-2-ylmethyl)-1H-benzo[d]imidazole-5-carboxamide]
IC50 (DGAT-1; DGAT-1 membrane fractions from 293T cells, read-out: IC50, in vitro synthesis of TG by DGAT-1): 17.4 µM | IC50 (DGAT-1; Table 2 and Figure 6E, read-out: IC50 required for inhibition of the enzymatic DGAT activities in vitro (summary)): > 5 µM | relative number of LD-positive J6/JFH1 cells (Huh7.5-J6/JFH1 cells): 38.6% | T1/2, time required for reducing the viral RNAs by half ([1]; 8 μM, genotype 1b): 19.2 h | EC50 ([1]; Hepatitis C virus, 72 h, read-out: EC50 HCV RNA, subgenomic replicon): 3.3 µM | EC50 ([2]; Hepatitis C virus, GETYPE2A, 72 h, read-out: concentration required for reducing 50% of HCV protein expression (EC50)): 3.6 µM | time required for reducing 50% of HCV protein expression (T1/2) ([2]; genotype 2a, 10 μM of 10j, 8 μM (figure legend)): 37.8 h | HCV IRES-dependent translation (HCV IRES): remained unaltered | CC50 [3]: 38.9 µM

— PMC6222871, “Suppression of Hepatitis C Virus Genome Replication and Particle Production by a Novel Diacylglycerol Acyltransferases Inhibitor” (Molecules : A Journal of Synthetic Chemistry and Natural …, 2018)
